Data as given in patent US20210269453A1, “Bryoid Compositions, Methods of Making and Use Thereof” (Aphios Corporation, priority 2018, published 2021).

Tested on: alpha-secretase
Test: Effect of purified Bryoids on alpha-secretase activity in SHSY-5Y neuroblastoma cells (FIG. 10)
Format: cell-based
Conditions: 10-^9M, FIG. 10, relative to Bryostatin-1
Source text: FIG. 10 depicts the effect of Bryostatin-1 and different Bryoids at 10-^9M on alpha-secretase activity in SHSY-5Y neuroblastoma cells;
Purified Bryoids at 10-^9M are shown to increase alpha-secretase activity in SHSY-5Y neuroblastoma cells in FIG. 10.

Row | Compound | alpha-secretase activity
1 | bryostatin-3 26-ketone [Bryoid B16] | improve the production of alpha-secretase over Bryostatin-1
2 | CCC/C=C/C=C/C(=O)O[C@H]1[C@H]2C=C3C[C@H]([C@@H](C)O)OC(=O)C[C@H](O)C[C@@H]4C[C@H](OC(C)=O)C(C)(C)[C@](O)(C[C@@H]5C/C(=C\C(=O)OC)C[C@H](/C=C/C(C)(C)[C@]1(OC(=O)C2)O3)O5)O4 [Bryoid B3, Bryostatin-3] | improve the production of alpha-secretase over Bryostatin-1
